Here are results for one compound from patent US20260315431A1, “NANOMATERIAL ENCAPSULATED BIOFILM INHIBITORS FOR DENTAL CARIES TREATMENT” (THE UAB RESEARCH FOUNDATION, priority 2023, published 2026).

The structures appear in SMILES notation. Where two headings read alike, the source gives them in different places.

In this experiment the test system is S. mutans Gtfs. Description: Gtf inhibition determined by glucan quantification. It counts as biochemical, Streptococcus mutans. Particulars: role: inhibitor. The text has this:
The interspecies co-adherence between S. mutans and other microorganisms in the oral cavity is critical for biofilm formation and cariogenicity. Though the mechanisms of such adhesions and co-aggregations are not fully elucidated, it is believed that the extracellular polysaccharide (EPS) matrix of S. mutans has an important role in this process^49, 50. It is reported that glucans synthesized by Gtfs when incorporated into the tooth pellicle to provide enhanced binding sites for other microorganisms to form stable and persistent microcolonies, which provides mechanical stability to the EPS matrix^50, 51. Therefore, Gtf inhibition assays were performed to assess the ability of HA5 to inhibit the Gtfs and glucan production using a reported procedure and IC50 value was calculated^52.
HA5 is a polyhydroxy compound that contains a Michael acceptor functionality which raises concerns about non-specific and covalent binding.
Gtf inhibition determined by glucan quantification assays. Overnight cultures of S. mutans UA159 were centrifuged (6500 rpm, 4° C., 10 min) to remove cells. Supernatant was mixed with ethanol (1:1) and incubated at −80° C. for 1 h. The precipitated Gtfs were palleted using centrifugation and resuspended in chemically defined media (CDM) 10 μL of Gtfs suspended in CDM were assayed on Ibidi slides with varying concentrations of inhibitor, 1% sucrose, 1% DMSO and 1 μM Cascade blue dye in CDM. The slides were then incubated at 37° C. with 5% CO2 for 16 h after which, the wells of Ibidi slides were gently rinsed with 1×PBS and treated with 1×PBS for fluorescence microscopy imaging. The images obtained were processed in ImageJ to quantify glucans and graphed in GraphPad Prism.
Gtf inhibition assays were performed to assess the ability of HA6 to inhibit the Gtfs and glucan production using a reported procedure and IC50 value was calculated^[44, 45] Overnight cultures of S. mutans UA159 were centrifuged (6500 rpm, 4° C., 10 min) to remove the cells. Supernatant was mixed with ethanol (1:1) and incubated at −80° C. for 1 h. The precipitated Gtfs were palleted using centrifugation and resuspended in CDM (1 mL). 10 μL of Gtfs suspension in CDM was assayed on Ibidi slides with varying concentrations of PEHA5 or HA6, 1% sucrose, 1% DMSO and 1 μM Cascade blue dextran conjugated dye in CDM. The slides were then incubated at 37° C. with 5% CO2 for 16 h after which, the wells of Ibidi slides were gently rinsed with 1×PBS and imaged using fluorescence microscopy. The images obtained were processed in ImageJ to quantify glucans and graphed in GraphPad Prism 10.0.2.

Turning to `O=C1/C(=C/c2cc(O)c(O)cc2O)Oc2ccccc21` [HA5, 2-[(2′,4′,5′-Trihydroxyphenyl)methylidene]-2,3-dihydro-1-benzofuran-3-one], the IC50 (commonly the concentration at which inhibition is half-maximal) reads like this: (1% sucrose, 1% DMSO, no BME or Triton-X-100, read-out: Gtf inhibition (glucan production) IC50) 10.6 µM; (no BME, unit M, read-out: Gtf inhibition (glucan production) IC50) 10.6 µM; (with beta-mercaptoethanol 1 mM, read-out: Gtf inhibition IC50 in the presence of BME) 7.84 µM; (with detergent Triton-X-100, read-out: Gtf inhibition IC50 in the presence of Triton-X-100) 5.16 µM.
